What was measured:
ESCs [SHEF1] [1] = assay: Flow cytometry of the DE marker CXCR4; assay type: cell-based, human; details: 2 μM 1M, 100 ng/ml Activin A, alone or in combination, 5 days
Method: (§1) (A) RNA was extracted from ESCs [SHEF1] cultured for 7 days in the presence of 2 μM 1M for the days indicated. RT-PCR analyses were performed using primers selective for the genes indicated. (B) ESCs [SHEF1] were treated with 2 μM 1M alone or in combination with 10 μM SB43125 (S) for the days indicated and RT-PCR performed on the extracted RNA. (C) ESCs [SHEF3] were treated with 1M alone or in combination with 100 ng/ml Activin A (A) for the days indicated and RT-PCR performed. (D). ESCs [SHEF1] were treated with 2 μM 1M, or 100 ng/ml ActivinA (A) alone or in combination with 1M for 5 days. Expression of the endoderm markers FoxA2 and HNF4α was analysed by immunofluorescence. The number of percent positive cells averaged from 3 fields of view +/−SD are indicated. Scale bar represents 50 μm. (E) ESCs [SHEF1] were treated with 2 μM 1M, or 100 ng/ml ActivinA (A) alone or in combination with 1M for 5 days. Expression of the DE marker CXCR4 was alaysed by flow cytometry.
ESCs were trypsinised (0.05% Trypsin-EDTA) for 10 minutes at 37° C. and resuspended in PBS containing 2% (v/v) FBS (FBS/PBS). […] Flow cytometry was performed using a FACSCanto cytometer (Becton Dickenson) and the data were analysed with FACSDiva software. […]

[2] = system: definitive endoderm derived from human ESCs; assay: Differentiation of chemically induced DE to hepatocyte-like cells; assay type: cell-based; details: DE induction with compound, then HGF/FGF4, then HGF/FGF4/OSM/Dex
From the text: (A) Schematic representation of the differentiation protocol. (B) Images of differentiated cells at stage II (d14) and stage III (d25). (C) RT-PCR expression analyses of RNA prepared from cells at the indicated stages of differentiation, using primers specific to the genes indicated. RNA extracted from human liver was used as a positive control. β-ACTIN was used as a housekeeping gene. (D) Expression of FoxA2 and the early hepatic markers HNF4α, AFP and TTR in cells at stage II and stage III of differentiation were analyzed by immunofluorescence. Scale bar represents 50 μm. (E) Media (1 μl) from stage III (d25) cells, conditioned for 48 hours, and from a media alone (MA) control were analysed by immunoblotting with an antibody to AFP. Purified AFP and media conditioned from HUH7 cells were run as controls. (F) ELISA assay for human Albumin from stage III (d25) media. (G) Differentiation of BIO-derived DE cells to hepatocyte-like cells. SHEF3 ESCs were treated with 2 μM BIO for 5 days to induce differentiation to the DE. ESCs were then cultured under hepatic induction and maturation conditions as outlined in the Experimental Procedures and FIG. 5A. Expression of FOXA2 and the early hepatic markers HNF4α, AFP and TTR in ESCs at stage II and stage III of differentiation were analyzed by immunofluorescence. Scale bar represents 50 μm. […]

ESCs [SHEF1] [3] = assay: RT-PCR of Activin/Nodal pathway and differentiation marker genes; assay type: cell-based, human; details: 2 μM, after 1 day, maintained up to 3 days, basal by day 7
Method: as §1
Total RNA was isolated and purified using TRIzol Reagent (Invitrogen), following the manufacturer's instructions. All RNA samples were treated with DNase I (Ambion) before cDNA synthesis to eliminate any contaminating genomic DNA. RNA (1 μg) was reverse transcribed into cDNA using Oligo(dT)15 (Promega) and SuperScript II (Invitrogen). Gene-specific PCR was carried out using primers and annealing temperatures outlined in Table 2.

Q: Which “CXCR4 expression by flow cytometry” value (ESCs [SHEF1] [1]) does the source give for O=C1NC(=O)C2=C1c1cn(c3ccccc13)CCOCCOCCOCCOCCn1cc2c2ccccc21 [1M] here?
A: 53.0%

Q: And the “Potential of compound-derived DE to form hepatocyte-like cells” value [2]?
A: has the potential to differentiate into cells with hepatocyte characteristics

Q: What about the NODAL gene expression (ESCs [SHEF1] [3]) of the same molecule?
A: increase in NODAL gene expression

From patent publication US8815590B2, “Composition and method for differentiation of human embryonic stem cells” (Stem Cells for Safer Medicines Limited, priority 2009, dated 2014)
